The structures appear in SMILES notation.

The target in one experiment is T1, RORγ ligand-binding domain fused to Gal4 (Homo sapiens, UniProt P51449).
T1 construct: Gal4 (galactose-responsive transcription factor); expressed in transfected cells; host or cells: HEK293
T1 sequence (P51449 269-508 limits assumed): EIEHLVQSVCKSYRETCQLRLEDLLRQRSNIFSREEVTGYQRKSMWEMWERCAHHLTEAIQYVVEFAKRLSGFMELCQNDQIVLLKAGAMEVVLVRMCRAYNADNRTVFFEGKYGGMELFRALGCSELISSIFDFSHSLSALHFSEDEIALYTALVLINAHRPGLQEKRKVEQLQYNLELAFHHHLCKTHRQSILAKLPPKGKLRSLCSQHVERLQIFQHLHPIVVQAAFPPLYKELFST
Nature of the experiment: RORγ Reporter Assay (Gal4). Particulars: HEK293 cells co-transfected with RORγ LBD-Gal4 and luciferase reporter; 24 h incubation; absolute EC50; read-out: EC50. In kind it is cell-based. Here is the method: The HEK293 cell line is co-transfected transiently with two plasmids, one with the RORγ ligand-binding domain fused to galactose-responsive transcription factor (Gal4), and the other with the luciferase reporter gene and Gal binding sites (UAS). This construction allows to determine the RORγ activity in a cellular system through the measurement of luminescence.
A suspension of RORγ reporter cells was dispensed into plates and cultured 2 h at 37° C. and 5% CO2. Media formulation consisted in DMEM/F-12 medium (Gibco) supplemented with 10% heat inactivated FBS (Sigma-Aldrich), non-essential aminoacids (Sigma-Aldrich), 2 mM Glutamax (Gibco) and 100 U/mL penicillin (Sigma-Aldrich). Dose-response curves with compounds were prepared in 100% DMSO and further diluted 100-fold in culture medium. Compound solutions were added to the plate containing cells (final DMSO concentration of 0.1%) and incubated for 24 h at 37° C. and 5% CO2. Luciferase detection reagent was added to each well, and relative light units (RLUs) were quantified from each assay well using a plate reading luminometer.
Values of average RLU±S.D. were computed for all treatment sets, followed by the calculations of percent-reduction of RORγ activity in response to respective test compound. The following formula was used: activity=100*[1−[x test compound/average vehicle] where the theoretical minimum reduction (0% reduction).
Regarding `NC(=O)CN1CC[C@H](CNc2ncnc(N(Cc3ccc(C(F)(F)F)cc3)C3CCC3)c2F)[C@@H](O)C1` (stereo in doubt) [Example A7-16-2, rel-2-((3R,4R)-4-(((6-(cyclobutyl(4-(trifluoromethyl)benzyl)amino)-5-fluoropyrimidin-4-yl)amino)methyl)-3-hydroxypiperidin-1-yl)acetamide], the EC50 (usually the concentration needed to bring the measured effect to its halfway point) came out at 22 nM.
For the molecule `CCN(Cc1ccc(C(F)(F)F)cc1)c1ncnc(NC[C@@H]2CCN(C(CCO)C(N)=O)C[C@H]2O)c1F` (relative stereo) [Example A7-67, rel-2-((3R,4R)-4-(((6-(ethyl(4-(trifluoromethyl)benzyl)amino)-5-fluoropyrimidin-4-yl)amino)methyl)-3-hydroxypiperidin-1-yl)-4-hydroxybutanamide], the EC50 is 43 nM.
For the molecule `NC(=O)CN1CC[C@H](CNc2ncnc(N(Cc3ccc(C(F)(F)F)cc3F)C3CC3)c2F)[C@@H](O)C1` (single isomer, unassigned) [Example A7-22-2], the EC50 was 3.4 nM.
For the molecule `NC(=O)CN1CC[C@H](CNc2ncnc(N(Cc3ccc(C(F)(F)F)cc3F)C3CC3)c2F)[C@@H](O)C1` (single isomer, unassigned) [Example A7-22-1], the EC50 is 4.9 nM.
As for `CCN(Cc1ccc(C(F)(F)F)cc1F)c1ncnc(NC[C@@H]2CCN(CC(N)=O)C[C@H]2O)c1F` (stereo in doubt) [Example A7-26, rac-2-((3R,4R)-4-(((6-(ethyl(2-fluoro-4-(trifluoromethyl)benzyl)amino)-5-fluoropyrimidin-4-yl)amino)methyl)-3-hydroxypiperidin-1-yl)acetamide], the EC50 turned out to be 17 nM.
Same read-out and setting: the result for `NC(=O)CN1CC[C@H](CNc2ncnc(N(Cc3ccc(C(F)(F)F)cc3)C3CC3)c2F)[C@@H](F)C1` (relative stereo) [Example A7-05-2, rel-2-((3R,4R)-4-(((6-(cyclopropyl(4-(trifluoromethyl)benzyl)amino)-5-fluoropyrimidin-4-yl)amino)methyl)-3-fluoropiperidin-1-yl)acetamide] reads 14 nM.
For `NC(=O)C(C1CCOCC1)N1CC[C@@H](CNc2ncnc(N(Cc3ccc(C(F)(F)F)cc3)C3CC3)c2F)[C@H](O)C1` (mixture of isomers) [Example A7-71, rac-2-((3R,4R)-4-(((6-(Cyclopropyl(4-(trifluoromethyl)benzyl)amino)-5-fluoropyrimidin-4-yl)amino)methyl)-3-hydroxypiperidin-1-yl)-2-(tetrahydro-2H-pyran-4-yl)acetamide], the EC50 worked out at 3.9 nM.
Regarding `Cc1cc(CN(c2ncnc(NCC3CCN(CC(N)=O)CC3)c2F)C2CC2)cc(C)c1Cl` [Example A7-53, 2-(4-(((6-((4-chloro-3,5-dimethylbenzyl)(cyclopropyl)amino)-5-fluoropyrimidin-4-yl)amino)methyl)piperidin-1-yl)acetamide], the EC50 is more than 1000 nM.
In the case of `CCN(Cc1ccc(C(F)(F)CO)cc1)c1ncnc(NC[C@@H]2CCN(CC(N)=O)C[C@H]2O)c1F` (racemic) [Example A7-79, rac-2-((3R,4R)-4-(((6-((4-(1,1-difluoro-2-hydroxyethyl)benzyl)(ethyl)amino)-5-fluoropyrimidin-4-yl)amino)methyl)-3-hydroxypiperidin-1-yl)acetamide], the EC50 came out at 164 nM.
Turning to `NC(=O)CN1CC[C@@H](CNc2ncnc(N(Cc3ccc(OC(F)F)cc3F)C3CCC3)c2F)[C@H](O)C1` (single isomer, unassigned) [Example A7-15-1], the EC50 stood at 51 nM.
On to `Cn1cnnc1C1(CNc2ncnc(N(Cc3ccc(C(F)(F)F)cc3)C3CC3)c2F)CCN(CC(N)=O)CC1` [Example A7-83, 2-(4-(((6-(Cyclopropyl(4-(trifluoromethyl)benzyl)amino)-5-fluoropyrimidin-4-yl)amino)methyl)-4-(4-methyl-4H-1,2,4-triazol-3-yl)piperidin-1-yl)acetamide], for which the EC50 was more than 1000 nM.
Take `NC(=O)CN1CC[C@H](CNc2ncnc(N(Cc3ccc(C(F)(F)F)cn3)C3CC3)c2F)[C@@H](F)C1` (relative stereo) [Example A7-04-2, rel-2-((3R,4R)-4-(((6-(cyclopropyl((5-(trifluoromethyl)pyridin-2-yl)methyl)amino)-5-fluoropyrimidin-4-yl)amino)methyl)-3-fluoropiperidin-1-yl)acetamide]: the EC50 came to 89 nM.
With `NC(=O)CN1CC[C@](O)(CNc2ncnc(N(Cc3ccccc3F)C3CC3)c2F)[C@@H](O)C1` (relative stereo) [Example D5-10, rel-2-((3R,4R)-4-(((6-(cyclopropyl(2-fluorobenzyl)amino)-5-fluoropyrimidin-4-yl)amino)methyl)-3,4-dihydroxypiperidin-1-yl)acetamide], the EC50 is more than 1000 nM.
Same read-out and setting: the result for `NC(=O)CN1CCC(CNc2ncnc(N(Cc3ccc(C(F)(F)F)cc3)C3CC3)c2F)CC1` [Example A7-39, 2-(4-(((6-(cyclopropyl(4-(trifluoromethyl)benzyl)amino)-5-fluoropyrimidin-4-yl)amino)methyl)piperidin-1-yl)acetamide] reads 37 nM.
Consider `CC1CC(CNc2ncnc(N(Cc3ccc(C(F)(F)F)cc3)C3CC3)c2F)CCN1CC(N)=O` (stereo not drawn) [Example A7-48], for which the EC50 turned out to be 17 nM.
Regarding `CC(C)N(Cc1ccc(C(F)(F)F)cc1)c1ncnc(NC[C@H]2CCN(CC(N)=O)C[C@@H]2O)c1F` (racemic) [Example A7-19, rac-2-((3R,4R)-4-(((5-fluoro-6-(isopropyl(4-(trifluoromethyl)benzyl)amino)pyrimidin-4-yl)amino)methyl)-3-hydroxypiperidin-1-yl)acetamide], the EC50 was 42 nM.
Regarding `NC(=O)CN1CCC(CNc2ncnc(N(Cc3cccc(-n4cncn4)c3)C3CC3)c2F)CC1` [Example A7-38, 2-(4-(((6-((3-(1H-1,2,4-triazol-1-yl)benzyl)(cyclopropyl)amino)-5-fluoropyrimidin-4-yl)amino)methyl)piperidin-1-yl)acetamide], the EC50 was 590 nM.
On to `NC(=O)CN1CC[C@@H](CNc2ncnc(N(CCF)Cc3ccc(C(F)(F)F)cc3)c2F)[C@H](O)C1` (racemic) [Example A7-30, rac-2-((3R,4R)-4-(((5-fluoro-6-((2-fluoroethyl)(4-(trifluoromethyl)benzyl)amino)pyrimidin-4-yl)amino)methyl)-3-hydroxypiperidin-1-yl)acetamide], for which the EC50 is more than 1000 nM.
Turning to `CN(Cc1ccc(C(F)(F)F)cc1)c1ncnc(NC[C@H]2CCN(CC(N)=O)C[C@@H]2O)c1F` (racemic) [Example A7-20, rac-2-((3R,4R)-4-(((5-fluoro-6-(methyl(4-(trifluoromethyl)benzyl)amino)pyrimidin-4-yl)amino)methyl)-3-hydroxypiperidin-1-yl)acetamide], the EC50 turned out to be 26 nM.

Staying with this experiment, now noted: compounds of the present disclosure; source: Table 2 herein; read-out: Gal4 assay EC50.
`NC(=O)CN1CC[C@H](CNc2ncnc(N(Cc3ccc(C(F)(F)F)cc3)C3CC3)c2F)[C@@H](F)C1` (single isomer, unassigned) [Example A7-05-1]: the EC50 was less than 100 nM.

The experiment is the same for the next values; noted with them: compounds of the present disclosure; value from Table 2 herein; read-out: Gal4 assay EC50.
For the molecule `CN(Cc1cccc(OC(F)(F)F)c1)c1ncnc(NC[C@@H]2CCN(CC(N)=O)C[C@H]2O)c1F` (racemic) [Example F2-07, rac-2-((3R,4R)-4-(((5-fluoro-6-(methyl(3-(trifluoromethoxy)benzyl)amino)pyrimidin-4-yl)amino)methyl)-3-hydroxypiperidin-1-yl)acetamide], the EC50 is less than 100 nM.
